The target in assay [1] is purified human autoBACE-2 (Homo sapiens (Human), UniProt Q9Y5Z0). The assay can be described thus: BACE-2 Assay (BACE-HTRF assay). Format: biochemical. Particulars: Ki calculated from IC50 using the Cheng-Prusoff equation; QSY7-EISEVNLDAEFC-Eu-amide substrate, pH 5.0; read-out: BACE2 Ki. As for the experimental part:
Inhibitor IC50s at purified human autoBACE-2 are determined in a time-resolved endpoint proteolysis assay that measures hydrolysis of the QSY7-EISEVNLDAEFC-Eu-amide FRET peptide substrate (BACE-HTRF assay). BACE-mediated hydrolysis of this peptide results in an increase in relative fluorescence (RFU) at 620 nm after excitation with 320 nm light. Inhibitor compounds, prepared at 3× the desired final concentration in 1×BACE assay buffer (20 mM sodium acetate pH 5.0, 10% glycerol, 0.1% Brij-35) supplemented with 7.5% DMSO are pre-incubated with an equal volume of autoBACE-2 enzyme diluted in 1×BACE assay buffer (final enzyme concentration 1 nM) in black 384-well NUNC plates for 30 minutes at 30° C. The assay is initiated by addition of an equal volume of the QSY7-EISEVNLDAEFC-Eu-amide substrate (200 nM final concentration, Km=8 μM […] for autoBACE-2) prepared in 1×BACE assay buffer supplemented with 7.5% DMSO and incubated for 90 minutes at 30° C. DMSO is present at 5% final concentration in the assay. Following laser excitation of sample wells at 320 nm, the fluorescence signal at 620 nm is collected for 400 ms following a 50 μs delay on a RUBYstar HTRF plate reader (BMG Labtechnologies). Raw RFU data is normalized to maximum (1.0 nM BACE/DMSO) and minimum (no enzyme/DMSO) RFU values. IC50s are determined by nonlinear regression analysis (sigmoidal dose response, variable slope) of percent inhibition data with minimum and maximum values set to 0 and 100 percent respectively. Similar IC50s are obtained when using raw RFU data. The Ki values are calculated from the IC50 using the Cheng-Prusoff equation.

The target of assay [2] is soluble human BACE1 catalytic domain (Homo sapiens (Human), UniProt P56817). As to the kind of experiment: BACE1 HTRF FRET Assay. Format: biochemical. As to conditions: Ki calculated from IC50 using the Cheng-Prusoff equation; QSY7-APPswe-Eu substrate, pH 5.0. From the text:
Reagents: Na^+-Acetate pH 5.0; 1% Brij-35; Glycerol; Dimethyl Sulfoxide (DMSO);
A homogeneous time-resolved FRET assay can be used to determine IC50 values for inhibitors of the soluble human BACE1 catalytic domain. This assay monitors the increase of 620 nm fluorescence that resulted from BACE1 cleavage of an APPswedish APP^swe mutant peptide FRET substrate (QSY7-[…]-Europium-amide). This substrate contains an N-terminal QSY7 moiety that serves as a quencher of the C-terminal Europium fluorophore (620 nm Em). […] Inhibition of BACE1 cleavage of the QSY7-APP^swe-Eu substrate by inhibitors is manifested as a suppression of 620 nm fluorescence.
Reactions are initiated by addition of 10 μl of 600 nM QSY7-APP^swe-Eu substrate (200 nM final) to give a final reaction volume of 30 μl in a 384 well Nunc HTRF plate. The reactions are incubated at 30° C. for 1.5 hours. The 620 nm fluorescence is then read on a Rubystar HTRF plate reader (BMG Labtechnologies) using a 50 millisecond delay followed by a 400 millisecond acquisition time window. Inhibitor IC50 values are derived from non-linear regression analysis of concentration response curves.

Among the data in patent publication US9453034B2, “C2-azaspiro iminothiazine dioxides as BACE inhibitors, compositions, and their use” (Merck Sharp & Dohme Corp., priority 2013, dated 2016) are Ki values, retold here.

purified human autoBACE-2, sequence (Q9Y5Z0 63-473): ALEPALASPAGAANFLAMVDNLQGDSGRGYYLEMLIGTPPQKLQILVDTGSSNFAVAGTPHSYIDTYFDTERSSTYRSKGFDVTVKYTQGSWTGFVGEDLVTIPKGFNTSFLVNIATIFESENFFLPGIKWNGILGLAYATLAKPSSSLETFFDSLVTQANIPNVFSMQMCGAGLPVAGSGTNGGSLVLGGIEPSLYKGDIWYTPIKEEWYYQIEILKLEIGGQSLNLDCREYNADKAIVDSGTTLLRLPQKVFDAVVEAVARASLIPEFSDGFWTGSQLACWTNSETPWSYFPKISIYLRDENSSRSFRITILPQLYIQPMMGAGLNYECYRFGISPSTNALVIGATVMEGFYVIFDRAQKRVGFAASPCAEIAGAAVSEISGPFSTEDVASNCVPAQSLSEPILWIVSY
soluble human BACE1 catalytic domain, sequence (P56817 75-416): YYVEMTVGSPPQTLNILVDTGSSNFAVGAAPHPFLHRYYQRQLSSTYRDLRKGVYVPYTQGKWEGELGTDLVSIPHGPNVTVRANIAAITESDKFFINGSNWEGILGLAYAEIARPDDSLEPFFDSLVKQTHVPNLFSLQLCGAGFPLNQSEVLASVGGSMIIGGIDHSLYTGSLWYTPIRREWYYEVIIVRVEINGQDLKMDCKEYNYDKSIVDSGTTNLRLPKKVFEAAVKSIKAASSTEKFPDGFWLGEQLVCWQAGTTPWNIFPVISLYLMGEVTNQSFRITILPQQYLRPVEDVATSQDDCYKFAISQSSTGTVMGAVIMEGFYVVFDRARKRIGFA

Regarding `CN1CCC2(CC1)C(=N)N[C@](C)(c1cc(NC(=O)c3ccc(F)cn3)ccc1F)CS2(=O)=O` [Example 26, 5-fluoro-N-{4-fluoro-3-[(3R)-5-imino-3,9-dimethyl-1,1-dioxido-1-thia-4,9-diazaspiro[5.5]undec-3-yl]phenyl}pyridine-2-carboxamide], the Ki in assay [1] is 6.4 nM; in assay [2] it was 37 nM.
In the case of `Cc1cc(C#N)cnc1C(=O)Nc1ccc(F)c([C@]2(C)CS(=O)(=O)C3(CNC3)C(=N)N2)c1` [Example 36e, 5-cyano-N-{4-fluoro-3-[(7R)-9-imino-7-methyl-5,5-dioxido-5-thia-2,8-diazaspiro[3.5]non-7-yl]phenyl}-3-methylpyridine-2-carboxamide], the inhibition constant (Ki) was 1.8 nM in assay [1] and 4.1 nM in assay [2].
Consider `CN1CCC2(CC1)C(=N)N[C@](C)(c1cc(NC(=O)c3ccc(OCF)cn3)ccc1F)CS2(=O)=O` [Example 32, N-{4-fluoro-3-[(3R)-5-imino-3,9-dimethyl-1,1-dioxido-1-thia-4,9-diazaspiro[5.5]undec-3-yl]phenyl}-5-(fluoromethoxy) pyridine-2-carboxamide], for which the results for the Ki in assay [1] and in assay [2] were 11 nM and 14 nM, respectively.
Consider `C[C@@]1(c2cc(NC(=O)c3ccc(C#N)cn3)ccc2F)CS(=O)(=O)C2(CNC2)C(=N)N1` [Example 36c, (R)-5-cyano-N-(4-fluoro-3-(9-imino-7-methyl-5,5-dioxido-5-thia-2,8-diazaspiro[3.5]nonan-7-yl)phenyl)picolinamide], for which the inhibition constant Ki in assay [1] was 2.6 nM; in assay [2], 3.7 nM.
As to `COc1ccc(C(=O)Nc2ccc(F)c([C@]3(C)CS(=O)(=O)C4(CN(Cc5ccccc5)C4)C(=N)N3)c2)nc1` [Example 40, (R)—N-(3-(2-benzyl-9-imino-7-methyl-5,5-dioxido-5-thia-2,8-diazaspiro[3.5]nonan-7-yl)-4-fluorophenyl)-5-methoxypicolinamide], the Ki in assay [1] is 0.6 nM; in assay [2], 7.7 nM.
In the case of `CC#CCOc1ccc(C(=O)Nc2ccc(F)c([C@]3(C)CS(=O)(=O)C4(CCN(C)CC4)C(=N)N3)c2)nc1` [Example 36, 5-(but-2-yn-1-yloxy)-N-{4-fluoro-3-[(3R)-5-imino-3,9-dimethyl-1,1-dioxido-1-thia-4,9-diazaspiro[5.5]undec-3-yl]phenyl}pyridine-2-carboxamide], the Ki in assay [1] was 30 nM; in assay [2], 2.3 nM.
For `COc1ccc(C(=O)Nc2ccc(F)c([C@]3(C)CS(=O)(=O)C4(CNC4)C(=N)N3)c2)nc1` [Example 36d, (R)—N-(4-fluoro-3-(9-imino-7-methyl-5,5-dioxido-5-thia-2,8-diazaspiro[3.5]nonan-7-yl)phenyl)-5-methoxypicolinamide] the same measures were 16 nM and 22 nM.
On to `Cc1cc(C#N)cnc1C(=O)Nc1ccc(F)c([C@]2(C)CS(=O)(=O)C3(CN(C)C3)C(=N)N2)c1` [Example 11, 5-cyano-N-{4-fluoro-3-[(7R)-9-imino-2,7-dimethyl-5,5-dioxido-5-thia-2,8-diazaspiro[3.5]non-7-yl]phenyl}-3-methylpyridine-2-carboxamide], for which the inhibition constant Ki in assay [1] is 1 nM; in assay [2], 1.3 nM.
`CN1CC2(C1)C(=N)N[C@](C)(c1cc(NC(=O)c3ccc(C#N)cn3)ccc1F)CS2(=O)=O` [Example 1, (R)-5-cyano-N-(4-fluoro-3-(9-imino-2,7-dimethyl-5,5-dioxido-5-thia-2,8-diazaspiro[3.5]nonan-7-yl)phenyl)picolinamide]: the Ki in assay [1] is 1.4 nM; in assay [2], 1.7 nM.
The corresponding values for `COc1ccc(C(=O)Nc2ccc(F)c([C@]3(C)CS(=O)(=O)C4(CN(c5ccc([N+](=O)[O-])cc5)C4)C(=N)N3)c2)nc1` [Example 42, (R)—N-(4-fluoro-3-(9-imino-7-methyl-2-(4-nitrophenyl)-5,5-dioxido-5-thia-2,8-diazaspiro[3.5]nonan-7-yl)phenyl)-5-methoxypicolinamide] are 0.32 nM and 1.4 nM.
Consider `CN1CCC2(CC1)C(=N)N[C@](C)(c1cc(NC(=O)c3ccc(C#N)cn3)ccc1F)CS2(=O)=O` [Example 25, 5-cyano-N-{4-fluoro-3-[(3R)-5-imino-3,9-dimethyl-1,1-dioxido-1-thia-4,9-diazaspiro[5.5]undec-3-yl]phenyl}pyridine-2-carboxamide], for which the Ki is 8.4 nM in assay [1] and 6.4 nM in assay [2].
For `COc1ccc(C(=O)Nc2ccc(F)c([C@]3(C)CS(=O)(=O)C4(CN(S(C)(=O)=O)C4)C(=N)N3)c2)nc1` [Example 38, (R)—N-(4-fluoro-3-(9-imino-7-methyl-2-(methylsulfonyl)-5,5-dioxido-5-thia-2,8-diazaspiro[3.5]nonan-7-yl)phenyl)-5-methoxypicolinamide], the Ki in assay [1] was 2.3 nM; in assay [2], 6.5 nM.
The corresponding values for `CN1CC2(C1)C(=N)N[C@](C)(c1cc(NC(=O)c3ccc(OC(F)(F)F)cn3)ccc1F)CS2(=O)=O` [Example 6, N-{4-fluoro-3-[(7R)-9-imino-2,7-dimethyl-5,5-dioxido-5-thia-2,8-diazaspiro[3.5]non-7-yl]phenyl}-5-(trifluoromethoxy) pyridine-2-carboxamide] are 10.3 nM and 3.3 nM.
For `COc1cnc(C(=O)Nc2ccc(F)c([C@]3(C)CS(=O)(=O)C4(CN(C)C4)C(=N)N3)c2)c(C)c1` [Example 9, N-{4-fluoro-3-[(7R)-9-imino-2,7-dimethyl-5,5-dioxido-5-thia-2,8-diazaspiro[3.5]non-7-yl]phenyl}-5-methoxy-3-methylpyridine-2-carboxamide], the Ki is 0.9 nM in assay [1] and 6.3 nM in assay [2].
On to `COCC(=O)Nc1ccc(F)c([C@]2(C)CS(=O)(=O)C3(CCN(C)CC3)C(=N)N2)c1` [Example 36b, N-{4-fluoro-3-[(3R)-5-imino-3,9-dimethyl-1,1-dioxido-1-thia-4,9-diazaspiro[5.5]undec-3-yl]phenyl}-2-methoxyacetamide], for which the Ki in assay [1] was 56 nM; in assay [2], 548 nM.
For the molecule `CN1CC2(C1)C(=N)N[C@](C)(c1cc(NC(=O)c3ccc(OC(F)F)cn3)ccc1F)CS2(=O)=O` [Example 7, 5-(difluoromethoxy)-N-{4-fluoro-3-[(7R)-9-imino-2,7-dimethyl-5,5-dioxido-5-thia-2,8-diazaspiro[3.5]non-7-yl]phenyl}pyridine-2-carboxamide], the Ki in assay [1] was 4.3 nM; in assay [2] it was 2.7 nM.
On to `CN1CC2(C1)C(=N)N[C@](C)(c1cc(NC(=O)c3ccc(OCF)cn3)ccc1F)CS2(=O)=O` [Example 8, N-{4-fluoro-3-[(7R)-9-imino-2,7-dimethyl-5,5-dioxido-5-thia-2,8-diazaspiro[3.5]non-7-yl]phenyl}-5-(fluoromethoxy) pyridine-2-carboxamide], for which the inhibition constant (Ki) is 1.5 nM in assay [1] and 4.9 nM in assay [2].
The corresponding values for `CN1CCC2(CC1)C(=N)N[C@](C)(c1cc(NC(=O)c3ccc(Cl)cn3)ccc1F)CS2(=O)=O` [Example 29, (R)-5-chloro-N-(4-fluoro-3-(5-imino-3,9-dimethyl-1,1-dioxido-1-thia-4,9-diazaspiro[5.5]undecan-3-yl)phenyl)picolinamide] are 3 nM and 12 nM.
As to `COc1cnc(C(=O)Nc2ccc(F)c([C@]3(C)CS(=O)(=O)C4(CCN(C)CC4)C(=N)N3)c2)c(C)c1` [Example 33, N-{4-fluoro-3-[(3R)-5-imino-3,9-dimethyl-1,1-dioxido-1-thia-4,9-diazaspiro[5.5]undec-3-yl]phenyl}-5-methoxy-3-methylpyridine-2-carboxamide], the Ki in assay [1] was 23 nM; in assay [2], 37 nM.
As to `CN1CC2(C1)C(=N)N[C@](C)(c1cc(NC(=O)c3ccc(F)cn3)ccc1F)CS2(=O)=O` [Example 2, 5-fluoro-N-{4-fluoro-3-[(7R)-9-imino-2,7-dimethyl-5,5-dioxido-5-thia-2,8-diazaspiro[3.5]non-7-yl]phenyl}pyridine-2-carboxamide], the Ki in assay [1] is 1.2 nM; in assay [2] it was 6.1 nM.

One may read the Ki as a measure of affinity in units of concentration, obtained from inhibition or displacement.
